Earlier results on 1 molecule are cited in patent publication EP2732812A1, “Pramipexole retard tablet formulation” (Aristo Pharma GmbH, priority 2012, dated 2014).

Counter-ions that a name gives are not always drawn.

`CCCN[C@H]1CCc2nc(N)sc2C1` [Pramipexoldihydrochlorid Monohydrat]: the “Löslichkeit In Puffer” value (buffer, pH-Wert von 2,0 bis 7,4) is given as > 10 mg/mL. For the setting “in water”, the “Löslichkeit In Wasser” value is given as > 20 mg/mL.
